# Several values for one entry are separate records, joined by “and”; a condition that tells them apart may be missing. Equal entries are not always repeated. Where two headings read alike, the source gives them in different places.
# What was measured:
# [1] = biological target: T1, 5-lipoxygenase (Homo sapiens, UniProt P09917); assay: 5-Lipoxygenase inhibition in human leukocytes (A23187-stimulated, LTC4 radioimmunoassay); assay type: cell-based
# T1 construct: Whole human blood is collected by venipuncture into EDTA; endogenous in cells; host or cells: leukocytes isolated from whole human blood (dextran sedimentation, hypotonic lysis)
# T1 sequence (P09917 1-674): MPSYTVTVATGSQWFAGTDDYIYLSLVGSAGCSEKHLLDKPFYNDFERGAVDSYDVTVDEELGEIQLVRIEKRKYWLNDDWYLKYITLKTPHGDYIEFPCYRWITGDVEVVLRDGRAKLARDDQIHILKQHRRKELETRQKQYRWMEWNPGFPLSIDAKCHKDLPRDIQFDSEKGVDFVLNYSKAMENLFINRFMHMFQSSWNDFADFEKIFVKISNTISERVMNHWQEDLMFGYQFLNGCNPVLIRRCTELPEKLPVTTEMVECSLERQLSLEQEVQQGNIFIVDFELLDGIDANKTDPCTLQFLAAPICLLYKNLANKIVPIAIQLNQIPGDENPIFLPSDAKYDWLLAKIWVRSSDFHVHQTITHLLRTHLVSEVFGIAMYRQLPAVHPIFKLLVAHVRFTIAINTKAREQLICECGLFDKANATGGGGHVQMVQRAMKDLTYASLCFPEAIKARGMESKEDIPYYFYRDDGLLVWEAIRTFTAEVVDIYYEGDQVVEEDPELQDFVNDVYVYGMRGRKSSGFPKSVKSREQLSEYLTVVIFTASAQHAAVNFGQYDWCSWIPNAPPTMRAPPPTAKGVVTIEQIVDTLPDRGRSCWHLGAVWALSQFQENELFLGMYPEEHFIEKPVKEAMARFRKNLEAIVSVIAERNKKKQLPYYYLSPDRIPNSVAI
# Method: The test method described below measures the ability of compounds to inhibit 5-lipoxygenase activity in human leukocytes.
# Whole human blood is collected by venipuncture into EDTA (1.4 mL of 0.25M per 60 mL of whole blood). The red blood cells are sedimented with a 6% dextran/0.9% sodium chloride solution at a ratio of 25 mL whole blood to 15 mL dextran solution. The blood/dextran combination is mixed by inversion and the red blood cells are allowed to settle out for 45 minutes at ambient temperature. The plasma/dextran supernatant is removed then centrifuged at ambient temperature at 3000 rpm for 10 minutes. The plasma/dextran supernatant is removed and the cells are resuspended in 10 mL of the plasma/dextran solution. […] The pellet is then resuspended into Tris buffer containing 1 mM calcium chloride to provide approximately 1.0 X 10^7 cells/mL.
# Compounds are dissolved in dimethyl sulfoxide. […] Each concentration is tested in duplicate.
# A 15 µL portion of Tris buffer containing 1 mM calcium chloride is added to each well of a 96 well microtiter plate. A 1 µL portion of drug solution or vehicle (dimethyl sulfoxide) is added to each well followed by the addition of an 75 µL portion of the cell suspension. The plates are gently mixed then allowed to stand at ambient temperature for 10 minutes. A 10 µL portion of 30 µM A23187 Calcium Ionophore (prepared by dissolving the ionophore in DMSO and then diluting 1:80 into the Tris buffer) is added to each well except the wells that contain the blanks (The blank wells measure the level of LTC4 production in the absence of A23187.). The plates are gently mixed then incubated at 37°C for 10 minutes.
# Following incubation the plates are centrifuged at 2000 rpm for 1.5 minutes and the supernatant is removed as quickly as possible to stop the reaction. The supernatants are frozen at -20°C until they are assayed.
# The supernatants are assayed for the presence of Leukotriene C4 by radioimmunoassay which is performed according to the manufacturer's (Advanced Magnetics; Cambridge, MA) instructions.
# [2] = test system: production of Leukotriene B4 (LTB4); assay: Dog ex vivo Leukotriene B4 inhibition (oral dosing, blood challenged with calcium ionophore); assay type: in vivo, beagle dogs; settings: each entry one dog, negative = stimulation of LTB4 production; for % Inhibition 6 hour / % Inhibition 2 hour / % Inhibition 4 hour / % Inhibition 1 hour: 5 mg/Kg; for inhibition at 5 mg/kg: Canis lupus familiaris, po
# Procedure, shortened: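 Beagle dogs (~10 kg) given compound orally by gavage in PEG 400 at 5 mg/kg; jugular blood drawn pre-dose and at selected post-dose times. Blood challenged with calcium ionophore 30 min at 37°C, plasma LTB4 measured by radioimmunoassay; % inhibition from post-dose versus pre-dose LTB4, one dog per value.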
# [3] = human leukocytes, A23187 Calcium Ionophore, LTC4 formed, read-out: IC50
# [4] = 1 h, 1 hour post dose, read-out: % Inhibition 1 hour
# [5] = 2 h, 2 hour post dose, read-out: % Inhibition 2 hour
# [6] = 4 h, 4 hour post dose, read-out: % Inhibition 4 hour
# [7] = 6 h, 6 hour post dose, read-out: % Inhibition 6 hour
Structure (SMILES),"IC50 [1, 3] [nM]",% Inhibition 6 hour ([2]; 6 hour post dose),"inhibition at 5 mg/kg [2, 4] [%]","inhibition at 5 mg/kg [2, 5] [%]","inhibition at 5 mg/kg [2, 6] [%]","inhibition at 5 mg/kg [2, 7] [%]",% Inhibition 2 hour ([2]; 2 hour post dose),% Inhibition 4 hour ([2]; 4 hour post dose),% Inhibition 1 hour ([2]; 1 hour post dose),IC50 [1] [nM]
"CSc1ccc(NC(=O)N(C)O)cc1 [Compound 1, 1-Hydroxy-1-methyl-3-[4-(methylthio)phenyl]urea]",83,95%,100,100,100,93,,,,
"COc1cccc(NC(=O)N(C)O)c1 [Compound 5, 1-hydroxy-3-(3-methoxyphenyl)-1-methylurea]",420,20% and 50%,100,,,,75%,99% and 44%,,
"CN(O)C(=O)Nc1cccc(Br)c1 [Compound 6, 3-(3-bromophenyl)-1-hydroxy-1-methylurea]",70,-52% and 19%,86,,,,11% and 62%,-36% and 27%,100%,
"Cc1cccc(NC(=O)N(C)O)c1 [Compound 7, 1-hydroxy-1-methyl-3-(3-methylphenyl)urea]",280,-21% and 48%,100,100,70,,99%,56%,,
"CN(O)C(=O)Nc1cccc(F)c1 [Compound 8, 3-(3-fluorophenyl)-1-hydroxy-1-methylurea]",680,9% and -32%,100,92,,,,27% and 11%,,
"CN(O)C(=O)Nc1cccc([N+](=O)[O-])c1 [Compound 9, 1-hydroxy-1-methyl-3-(3-nitrophenyl)urea]",80,54%,100,,33,56,34% and 83%,18%,,
"CN(O)C(=O)Nc1ccccc1 [Compound 10, 1-hydroxy-1-methyl-3-phenylurea]",20,42%,100,100,49,52,,34%,,
"CSc1cccc(NC(=O)N(O)C(C)C)c1 [Compound 16, 1-hydroxy-1-(1-methylethyl)-3-[3-(methylthio)phenyl]urea]",8,-39% and -24% and -186%,100,97,,,,-8% and -18% and -14% and -80%,,
"CC(C)N(O)C(=O)Nc1ccccc1 [Compound 17, 1-hydroxy-1-(1-methylethyl)-3-phenylurea]",43,64% and 43%,100,98,,,,70%,,
"CC(C)N(O)C(=O)Nc1ccc(F)cc1 [Compound 18, 3-(4-fluorophenyl)-1-hydroxy-1-(1-methylethyl)urea]",210,46% and -12%,100,100,49,,,57%,,
"CC(C)N(O)C(=O)Nc1ccccc1Cl [Compound 24, 3-(2-chlorophenyl)-1-hydroxy-1-(1-methylethyl)urea]",,-21% and -24%,99,73,7,,84%,14%,100%,200

# Now from value to compound, other results behind:
"IC50 [1, 3] [nM]",Structure (SMILES),% Inhibition 6 hour ([2]; 6 hour post dose),"inhibition at 5 mg/kg [2, 4] [%]","inhibition at 5 mg/kg [2, 5] [%]","inhibition at 5 mg/kg [2, 6] [%]","inhibition at 5 mg/kg [2, 7] [%]",% Inhibition 2 hour ([2]; 2 hour post dose),% Inhibition 4 hour ([2]; 4 hour post dose),% Inhibition 1 hour ([2]; 1 hour post dose),IC50 [1] [nM]
100,"CC(C)N(O)C(=O)Nc1ccc(Br)cc1 [Compound 19, 3-(4-bromophenyl)-1-hydroxy-1-(1-methylethyl)urea]",29% and 65%,100,84,,,,11% and 74%,,
700,"CC(C)N(O)C(=O)Nc1ccccc1F [Compound 20, 3-(2-fluorophenyl)-1-hydroxy-1-(1-methylethyl)urea]",13%,100,100,57,17,,64%,,
230,"Cc1cccc(NC(=O)N(O)C(C)C)c1 [Compound 21, 1-hydroxy-1-(1-methylethyl)-3-(3-methylphenyl)urea]",24% and -8%,100,95,,,88%,0% and -37%,,
150,"COc1ccc(NC(=O)N(O)C(C)C)cc1 [Compound 23, 1-hydroxy-3-(4-methoxyphenyl)-1-(1-methylethyl)urea]",15% and 80% and 98% and 56%,100,99,,,,84% and 82% and 59%,,
130,"Cc1ccccc1NC(=O)N(O)C(C)C [Compound 25, 1-hydroxy-1-(1-methylethyl)-3-(2-methylphenyl)urea]",9%,100,51,,7,57%,-45% and -78%,98%,
10,"CC(C)CCN(O)C(=O)Nc1ccccc1 [Compound 44, 1-hydroxy-1-(3-methylbutyl)-3-phenylurea]",-19% and 30%,,,,,11% and 5%,-19% and 12%,80% and 52%,
94,"CC(C)CN(O)C(=O)Nc1ccccc1 [Compound 54, 1-Hydroxy-1-(2-methylpropyl)-3-phenylurea]",,99,97,33,43,,,,
1100,"CN(O)C(=O)Nc1cccc(S(C)(=O)=O)c1 [Compound 59, 1-Hydroxy-1-methyl-3-[3-(methylsulfonyl)phenyl]urea]",37% and 55% and 93% and 76%,100,99,,,,83% and 75% and 78%,,
